Laboratory results: patent US9850283B2, “Macrocyclic inhibitors of the PD-1/PD-L1 and CD80(B7-1)/PD-L1 protein/protein interactions” (BRISTOL-MYERS SQUIBB COMPANY, priority 2013, dated 2017)
Like-named read-outs stand apart in the source and are kept apart here. Positions of bridges follow the written chain, without caps; N, C: chain ends. Non-standard residues stand in square brackets, D forms with d. Residues, ends and D or L forms follow the SMILES beside them. ξ: configuration not given here. *: point of attachment. Phe(4-guanidino) = N=C(N)Nc1ccc(C[C@H](N)C(=O)O)cc1; Phe(4-tBu) = CC(C)(C)c1ccc(C[C@H](N)C(=O)O)cc1; Phe(4-CH2NH2) = NCc1ccc(C[C@H](N)C(=O)O)cc1; Pro(trans-4-F) = O=C(O)[C@@H]1C[C@@H](F)CN1; Tyr(3-Br) = N[C@@H](Cc1ccc(O)c(Br)c1)C(=O)O; Phe(3-Cl) = N[C@@H](Cc1cccc(Cl)c1)C(=O)O; Phe(3-Me) = Cc1cccc(C[C@H](N)C(=O)O)c1; Phe(4-F) = N[C@@H](Cc1ccc(F)cc1)C(=O)O; Bta = N[C@@H](Cc1csc2ccccc12)C(=O)O; cisHyp = O=C(O)[C@@H]1C[C@H](O)CN1; Hyp = O=C(O)[C@@H]1C[C@@H](O)CN1; NMeF = CN[C@@H](Cc1ccccc1)C(=O)O; NMeNle = CCCC[C@H](NC)C(=O)O; NMeA = CN[C@@H](C)C(=O)O; Orn = NCCC[C@H](N)C(=O)O; Dab = NCC[C@H](N)C(=O)O; Dap = NC[C@H](N)C(=O)O; Bz = O=C(c1ccccc1)*; ξC = NC(CS)C(=O)O; Sar = CNCC(=O)O

Columns and labels:
Human PD-L1/PD-1 = molecular target: T1, Human PD-L1/PD-1 (Homo sapiens, UniProt Q9NZQ7); test: HTRF PD-1-Ig/PD-L1-His binding assay (human PD-L1)
T1 construct: made in house; host or cells: HEK293T
T1 sequence (Q9NZQ7 with tags, fused parts or gaps): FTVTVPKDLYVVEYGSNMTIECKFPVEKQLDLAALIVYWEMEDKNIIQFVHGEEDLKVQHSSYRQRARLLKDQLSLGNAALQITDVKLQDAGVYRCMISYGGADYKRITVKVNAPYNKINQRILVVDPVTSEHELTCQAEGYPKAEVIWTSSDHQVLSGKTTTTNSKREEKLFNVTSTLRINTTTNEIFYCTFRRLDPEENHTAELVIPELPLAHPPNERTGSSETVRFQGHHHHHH
Summary of the method: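 The time-resolved fluorescence signal comes from Eu-cryptate anti-Ig (1 nM) and APC anti-His (20 nM) antibodies bound to a PD-1-Ig/PD-L1-His complex. Both partners lack transmembrane regions.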

[1] = molecular target: T2, LK35.2-hPD-L1 cells / PE-labeled PD-1-Ig (Homo sapiens, UniProt Q9NZQ7); test: LK35.2-hPD-L1 cell binding high-content screening assay; type: cell-based
T2 construct: expressed in transfected cells; host or cells: LK35.2 mouse B cell line
T2 sequence (Q9NZQ7 19-290): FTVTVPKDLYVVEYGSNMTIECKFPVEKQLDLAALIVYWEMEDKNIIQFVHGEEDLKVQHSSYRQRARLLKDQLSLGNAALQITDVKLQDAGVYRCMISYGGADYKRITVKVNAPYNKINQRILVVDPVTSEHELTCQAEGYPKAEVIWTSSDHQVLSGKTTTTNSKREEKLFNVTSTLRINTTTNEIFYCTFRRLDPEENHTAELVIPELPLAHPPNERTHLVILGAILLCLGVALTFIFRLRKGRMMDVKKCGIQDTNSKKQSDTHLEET
Summary of the method: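 Compound effect on PD-1/PD-L1 binding is measured by imaging cell-associated phycoerythrin signal. Human PD-1-Ig (PE on Ig tag, 1 nM final) is applied with compound to a murine B cell line overexpressing human PD-L1 for 1 h at 37 °C in serum-containing RPMI.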

[2] = cluster symbol, read-out: HTRF IC50 cluster
[3] = cell binding assay, cell line not given, cluster symbol, read-out: CBA IC50 cluster
[4] = cluster symbol, cell line of CBA not given (LK35.2-hPD-L1 or 293T-hPD-L1), read-out: CBA IC50 cluster

SMILES | IC50 (Human PD-L1/PD-1; [2]) [nM] | IC50 [1, 3] [nM] | IC50 [1, 4] [nM] | also measured
CCCC[C@H]1C(=O)N(C)[C@@H](CCCC)C(=O)N[C@@H](CCCNC(=N)N)C(=O)N[C@H](C(=O)NCC(N)=O)CSCC(=O)N[C@@H](Cc2ccc(C(C)(C)C)cc2)C(=O)N(C)[C@@H](C)C(=O)N[C@@H](CC(N)=O)C(=O)N2CCC[C@H]2C(=O)N[C@@H](Cc2cnc[nH]2)C(=O)N[C@@H](CC(C)C)C(=O)N2C[C@H](O)C[C@H]2C(=O)N[C@@H](Cc2c[nH]c3ccccc23)C(=O)N[C@@H](CO)C(=O)N[C@@H](Cc2c[nH]c3ccccc23)C(=O)N1C [Example 7045] ({CH2CO}-[Phe(4-tBu)][NMeA]NPHL[Hyp]WSW[NMeNle][NMeNle]RCG-NH2; thioether N-14) | > 30.5 | > 74.3 | – | –
CCCC[C@H]1C(=O)N(C)[C@@H](CCCC)C(=O)N[C@@H](CN)C(=O)N[C@H](C(=O)NCC(N)=O)CSCC(=O)N[C@@H](Cc2ccc(O)cc2)C(=O)N(C)[C@@H](C)C(=O)N[C@@H](CC(N)=O)C(=O)N2CCC[C@H]2C(=O)N[C@@H](CN)C(=O)N[C@@H](CCC(=O)O)C(=O)N2C[C@H](O)C[C@H]2C(=O)N[C@@H](Cc2c[nH]c3ccccc23)C(=O)N[C@@H](CO)C(=O)N[C@@H](Cc2csc3ccccc23)C(=O)N1C [Example 1162] ({CH2CO}-Y[NMeA]NP[Dap]E[Hyp]WS[Bta][NMeNle][NMeNle][Dap]CG-NH2; thioether N-14) | 0.385 to 6.74 | – | 0.158 to 4.71 | –
CCCC[C@H]1C(=O)N(C)[C@@H](CCCC)C(=O)N[C@@H](CCCNC(=N)N)C(=O)N[C@H](C(=O)NCC(N)=O)CSCC(=O)N[C@@H](Cc2ccc(O)cc2)C(=O)N(C)[C@@H](C)C(=O)N[C@@H](CCN)C(=O)N2CCC[C@H]2C(=O)N[C@@H](Cc2c[nH]cn2)C(=O)N[C@@H](CC(=O)O)C(=O)N2C[C@H](O)C[C@H]2C(=O)N[C@@H](Cc2c[nH]c3ccccc23)C(=O)N[C@@H](CO)C(=O)N[C@@H](Cc2c[nH]c3ccccc23)C(=O)N1C [Example 5132] ({CH2CO}-Y[NMeA][Dab]PHD[Hyp]WSW[NMeNle][NMeNle]RCG-NH2; thioether N-14) | 6.76 to 30.3 | 4.78 to 72.9 | – | –
CCCC[C@H]1C(=O)N2CCC[C@@H]2C(=O)N[C@@H](CCN)C(=O)N[C@H](C(=O)NCC(N)=O)CSCC(=O)N[C@@H](Cc2ccc(O)c(Br)c2)C(=O)N(C)[C@@H](C)C(=O)N[C@@H](CC(N)=O)C(=O)N2CCC[C@H]2C(=O)N[C@@H](Cc2cnc[nH]2)C(=O)N[C@@H](CC(C)C)C(=O)N(C)CC(=O)N[C@@H](Cc2c[nH]c3ccccc23)C(=O)N[C@@H](CCN)C(=O)N[C@@H](Cc2c[nH]c3ccccc23)C(=O)N1C [Example 6045] ({CH2CO}-[Tyr(3-Br)][NMeA]NPHL[Sar]W[Dab]W[NMeNle][dP][Dab]CG-NH2; thioether N-14) | – | – | – | IC50 (Human PD-L1/PD-1; value given instead of cluster, read-out: HTRF IC50 value): 90.1 nM; IC50 ([1]; cell binding assay, cell line not given, value given instead of cluster, read-out: CBA IC50 value): 625 nM
CCCC[C@H]1C(=O)N(C)CC(=O)N[C@@H](CC(=O)O)C(=O)N[C@@H](C(C)C)C(=O)N[C@@H](Cc2cccc(C)c2)C(=O)N[C@@H](Cc2ccc(O)cc2)C(=O)N(C)CC(=O)N[C@@H](Cc2c[nH]c3ccccc23)C(=O)N[C@@H](Cc2ccc(O)cc2)C(=O)N[C@@H](CC(C)C)C(=O)N[C@H](C(=O)NCC(N)=O)CSCC(=O)N[C@@H](Cc2ccccc2)C(=O)N(C)[C@@H](Cc2ccccc2)C(=O)N1C [Example 3134] ({CH2CO}-F[NMeF][NMeNle][Sar]DV[Phe(3-Me)]Y[Sar]WYLCG-NH2; thioether N-13) | > 30.5 | – | > 74.3 | –
CCCC[C@H]1C(=O)N(C)[C@@H](CCCC)C(=O)N[C@@H](CCCNC(=N)N)C(=O)NC(C(=O)NCC(N)=O)CSCC(=O)N[C@@H](Cc2ccc(O)cc2)C(=O)N(C)[C@@H](C)C(=O)N[C@@H](CC(N)=O)C(=O)N2CCC[C@H]2C(=O)N[C@@H](CC(N)=O)C(=O)N[C@@H](CC(C)C)C(=O)N2C[C@H](O)C[C@H]2C(=O)N[C@@H](Cc2c[nH]c3ccccc23)C(=O)N[C@@H](CO)C(=O)N[C@@H](Cc2c[nH]c3ccccc23)C(=O)N1C (some centres unmarked) [Example 9061] ({CH2CO}-Y[NMeA]NPNL[Hyp]WSW[NMeNle][NMeNle]R[ξC]G-NH2; thioether N-14) | 0.385 to 6.74 | 0.158 to 4.71 | – | –
CCCC[C@H]1C(=O)N(C)[C@@H](CCCC)C(=O)N[C@@H](CCCNC(=N)N)C(=O)N[C@H](C(=O)NCC(N)=O)CSCC(=O)N[C@@H](Cc2ccc(N=C(N)N)cc2)C(=O)N(C)[C@@H](C)C(=O)N[C@@H](CC(N)=O)C(=O)N2CCC[C@H]2C(=O)N[C@@H](Cc2cnc[nH]2)C(=O)N[C@@H](CC(C)C)C(=O)N2C[C@H](O)C[C@H]2C(=O)N[C@@H](Cc2c[nH]c3ccccc23)C(=O)N[C@@H](CO)C(=O)N[C@@H](Cc2c[nH]c3ccccc23)C(=O)N1C [Example 7049] ({CH2CO}-[Phe(4-guanidino)][NMeA]NPHL[Hyp]WSW[NMeNle][NMeNle]RCG-NH2; thioether N-14) | > 30.5 | > 74.3 | – | –
CCCC[C@H]1C(=O)N(C)[C@@H](CCCC)C(=O)N[C@@H](CC(C)C)C(=O)N[C@H](C(=O)NCC(N)=O)CSCC(=O)N[C@@H](Cc2ccc(O)cc2)C(=O)N(C)[C@@H](C)C(=O)N[C@@H](CC(=O)O)C(=O)N2CCC[C@H]2C(=O)N[C@@H](Cc2c[nH]cn2)C(=O)N[C@@H](CCCCN)C(=O)N2C[C@H](O)C[C@H]2C(=O)N[C@@H](Cc2c[nH]c3ccccc23)C(=O)N[C@@H](CCCCN)C(=O)N[C@@H](Cc2c[nH]c3ccccc23)C(=O)N1C [Example 5095] ({CH2CO}-Y[NMeA]DPHK[Hyp]WKW[NMeNle][NMeNle]LCG-NH2; thioether N-14) | 0.385 to 6.74 | 0.158 to 4.71 | – | –
CCCC[C@H]1C(=O)N(C)CC(=O)N[C@@H](CC(=O)O)C(=O)N[C@@H](C(C)C)C(=O)N(C)[C@@H](Cc2ccccc2)C(=O)N[C@@H](Cc2ccc(CN)cc2)C(=O)N(C)CC(=O)N[C@@H](Cc2csc3ccccc23)C(=O)N[C@@H](Cc2ccc(O)cc2)C(=O)N[C@@H](CC(C)C)C(=O)N[C@H](C(=O)NCC(N)=O)CSCC(=O)N[C@@H](Cc2cccc(Cl)c2)C(=O)N(C)[C@@H](Cc2ccccc2)C(=O)N1C [Example 3118] ({CH2CO}-[Phe(3-Cl)][NMeF][NMeNle][Sar]DV[NMeF][Phe(4-CH2NH2)][Sar][Bta]YLCG-NH2; thioether N-13) | 6.76 to 30.3 | – | 4.78 to 72.9 | –
CCCC[C@H]1C(=O)N[C@@H](CCCNC(=N)N)C(=O)N[C@H](C(=O)NCC(N)=O)CSCC(=O)N[C@@H](Cc2ccccc2)C(=O)N(C)[C@@H](C)C(=O)N[C@@H](CC(N)=O)C(=O)N2CCC[C@H]2C(=O)N[C@@H](Cc2cnc[nH]2)C(=O)N[C@@H](CC(C)C)C(=O)N(C)CC(=O)N[C@@H](Cc2c[nH]c3ccccc23)C(=O)N[C@@H](CO)C(=O)N[C@@H](Cc2c[nH]c3ccccc23)C(=O)N[C@@H](CNC(=O)c2ccccc2)C(=O)N1C [Example 1013] ({CH2CO}-F[NMeA]NPHL[Sar]WSW[Dap](Bz)[NMeNle]RCG-NH2; thioether N-14) | – | – | – | IC50 (Human PD-L1/PD-1; HTRF IC50 cluster, cluster symbol): > 30.5 nM; IC50 ([1]; CBA IC50 cluster, cluster symbol, cell line of CBA not given (LK35.2-hPD-L1 or 293T-hPD-L1)): > 74.3 nM
CCCC[C@H]1C(=O)N(C)[C@@H](CCCC)C(=O)N[C@@H](CCCNC(=N)N)C(=O)N[C@H](C(=O)NCC(N)=O)CSCC(=O)N[C@@H](Cc2ccccc2)C(=O)N(C)[C@@H](C)C(=O)N[C@@H](CC(N)=O)C(=O)N2C[C@H](F)C[C@H]2C(=O)N[C@@H](Cc2cnc[nH]2)C(=O)N[C@@H](CC(C)C)C(=O)N(C)CC(=O)N[C@@H](Cc2c[nH]c3ccccc23)C(=O)N[C@@H](CO)C(=O)N[C@@H](Cc2c[nH]c3ccccc23)C(=O)N1C [Example 5012] ({CH2CO}-F[NMeA]N[Pro(trans-4-F)]HL[Sar]WSW[NMeNle][NMeNle]RCG-NH2; thioether N-14) | > 30.5 | > 74.3 | – | –
CCCC[C@H]1C(=O)N(C)[C@@H](CCCC)C(=O)N[C@@H](CCCN)C(=O)N[C@H](C(=O)NCC(N)=O)CSCC(=O)N[C@@H](Cc2ccc(O)cc2)C(=O)N(C)[C@@H](C)C(=O)N[C@@H](CC(N)=O)C(=O)N2CCC[C@H]2C(=O)N[C@@H](Cc2cnc[nH]2)C(=O)N[C@@H](CC(C)C)C(=O)N2C[C@@H](O)C[C@H]2C(=O)N[C@@H](Cc2c[nH]c3ccccc23)C(=O)N[C@@H](CO)C(=O)N[C@@H](Cc2csc3ccccc23)C(=O)N1C [Example 1051] ({CH2CO}-Y[NMeA]NPHL[cisHyp]WS[Bta][NMeNle][NMeNle][Orn]CG-NH2; thioether N-14) | 6.76 to 30.3 | – | 0.158 to 4.71 | –
CCCC[C@H]1C(=O)N(C)CC(=O)N[C@@H](CC(=O)O)C(=O)N[C@@H](C(C)C)C(=O)N(C)[C@@H](Cc2ccccc2)C(=O)N[C@@H](Cc2ccc(O)cc2)C(=O)N(C)CC(=O)N[C@@H](Cc2c[nH]c3ccccc23)C(=O)N[C@@H](Cc2ccc(O)cc2)C(=O)N[C@@H](CC(C)C)C(=O)N[C@H](C(=O)NCC(N)=O)CSCC(=O)N[C@@H](Cc2ccc(F)cc2)C(=O)N(C)[C@@H](Cc2ccccc2)C(=O)N1C [Example 3520] ({CH2CO}-[Phe(4-F)][NMeF][NMeNle][Sar]DV[NMeF]Y[Sar]WYLCG-NH2; thioether N-13) | 6.76 to 30.3 | 0.158 to 4.71 | – | –
